Residues, ends and D or L forms follow the SMILES beside them.
What was measured:
[1] = tested on: oxygen-induced retinopathy (OIR); assay: Rodent model of oxygen-induced retinopathy (OIR); format: in vivo, Sprague Dawley rats; conditions: for inhibition of pre-retinal neovascular growth (pathological angiogenesis): relative to PBS-injected eyes, P20
Excerpt: In order to assess the in viva efficacy of CGEN-A 11 [SEQ ID NO: 10] in a disease model of angiogenesis, a rodent model of oxygen-induced retinopathy (OIR) was used. Sprague Dawley rats were raised from birth through day PI4 in a variable oxygen atmosphere consisting of 24-hour alternating cycles of 50% and 10% oxygen. Rats were predisposed to pathological retinal angiogenesis as a result of oxygen treatment. Upon removal from the oxygen exposure chamber on day P14, rats received intravitreal injections of CGEN-A11 [SEQ ID NO: 10] in one of two doses: 15 μg/ml (low) or 75 μg/ml (high), 100 μg/ml recombinant rat Tie-2/Fc (R&D Systems, 3874-T2) or 100 μg/ml anti-VEGFR2 (Sigma, V1014) as positive controls, a combination of CGEN-A11 [SEQ ID NO: 10] at 30 μg/ml and anti-VEGFR2 (100 μg/ml), or vehicle (PBS) at a volume of 5 μl. An additional similar intravitreal administration took place 3 days later, on day P17. All pups were sacrificed on day P20. Both normal, intra-retinal vascular growth and abnormal, pre-retinal neovascular growth were assessed at six days post-exposure (P20) in ADPase-stained retinal flat-mounts, using widely published methods (e.g. Penn J S et al., 1991, Invest Ophthalmol Vis Sci. 32(4):1147; MicLeod D S et al., 1987, Microvasc Res. 33:257-269). All assessments were performed by a single, highly trained observer, who was blinded to treatment group. Areas of normal and abnormal vascular growth were measured via computer-assisted image analysis using high-resolution digital images of the stained retinal flat-mounts. The data were subjected to analysis of variance to determine statistical significance and a Dunnett's post hoc test to identify how the various treatment groups compared.
Data are depicted using percent total retinal area vascularized. Sample sizes (10, 11 or 12) are indicated on each bar. […] These differences yielded statistical significance, both at p<0.0001. Statistical significance was calculated using area (mm^2) measurements.
Data are depicted as area vascularized (mm^2). Sample sizes (10, 11 or 12) are indicated on each bar.

[2] = tested on: avian chorioallantoic membrane (CAM); format: in vivo, Leghorn fertilized eggs; conditions: for inhibition of vessel length: peptide 0.5 and 5 nmol/CAM, 48 h after treatment, vs vehicle control
Method: CGEN-G6 [SEQ ID NO: 6], CGEN-F9 [SEQ ID NO: 7], CGEN-F12 [SEQ ID NO: 8], CGEN-C6 [SEQ ID NO: 9], CGEN-A11 [SEQ ID NO: 10], and CGEN-G2 [SEQ ID NO: 11], were analyzed for their ability to affect angiogenesis using the in ovo avian chorioallantoic membrane (CAM) model of angiogenesis, which is widely used as a model to examine compounds affecting angiogenesis (Richardson and Singh 2003, Curr Drug Targets Cardiovasc Haematol Disord., 3(2):155-85). Two positive controls were used: fumagillin as a general anti-angiogenic compound, and Tie2 neutralizing antibody as anti-angiogenic inhibitor of the Ang/Tie2 pathway. Leghorn fertilized eggs were incubated for 4 days at 37° C., when a window was opened on the egg's shell, exposing the CAM. Two different doses of peptides (0.5 and 5 nmol/CAM), Tie-2 neutralizing antibody (R&D Systems, Cat#AF313, 10 μg/ml; 0.4 μg/CAM) or fumagillin (Tocris Bioscience, Cat #1768; 5 μg/CAM) were applied in a 40 μl volume inside an area of 1 cm^2 (restricted by a plastic ring) of the CAM on day 9 of embryo development. The appropriate vehicle controls were also tested. Forty-eight hours after treatment and subsequent incubation at 37° C., CAMs were fixed in situ, excised from the eggs, placed on slides and left to air-dry. Pictures were taken through a stereoscope equipped with a digital camera and the total length of the vessels was measured using image analysis software (NIH Image). For each group a total of 17-24 eggs from three different experiments were used. Data are presented as means±SEM and expressed as % of vehicle control. Statistical analysis (ANOVA followed by Dunnett's post-hoc test) was performed using Graph Pad.
FIG. 6 depict results obtained on vessel length with peptides CGEN-G6 [SEQ ID NO: 6], CGEN-F9 [SEQ ID NO: 7], CGEN-F12 [SEQ ID NO: 8], CGEN-C6 [SEQ ID NO: 9], CGEN-A11 [SEQ ID NO: 10], and CGEN-G2 [SEQ ID NO: 11], compared to Tie2 neutralizing antibody (Ab) and the anti-angiogenic compound fumagillin. Neutralizing Tie2 Ab blocked vessel length by 36%, while the angiogenesis inhibitor fumagillin blocked vessel length by 32%.

Row | SMILES | inhibition of pre-retinal neovascular growth (pathological angiogenesis) ([1]; intravitreal 15 μg/ml) [%] | intra-retinal normal vascular growth compared to PBS control ([1]; intravitreal 75 μg/ml, 5 μl, P14 and P17, assessed P20, p<0.0001) | inhibition of pre-retinal neovascular growth (pathological angiogenesis) ([1]; intravitreal 75 μg/ml, p=0.0126) [%] | inhibition of vessel length, rank among peptides ([2]; 5 nmole) | inhibition of vessel length [2]
1 | CC(=O)N[C@@H](CCC(=O)O)C(=O)N[C@H](C(=O)N[C@@H](Cc1ccccc1)C(=O)N[C@@H](CC(C)C)C(=O)N[C@@H](CO)C(=O)N[C@H](C(=O)N[C@@H](CC(N)=O)C(=O)N[C@@H](CCCCN)C(=O)N[C@@H](CC(C)C)C(=O)N[C@@H](CCC(=O)O)C(=O)N[C@@H](CC(N)=O)C(=O)N[C@@H](CCC(N)=O)C(N)=O)[C@@H](C)O)[C@@H](C)O [CGEN-A11, ETFLSTNKLENQ] (Ac-ETFLSTNKLENQ-NH2) | 38.9 | statistically significant increase | 76.4 | greatest effect | –
2 | CSCC[C@H](NC(=O)[C@H](CC(C)C)NC(=O)[C@H](CC(=O)O)NC(C)=O)C(=O)N[C@@H](CCC(=O)O)C(=O)N[C@H](C(=O)N[C@H](C(=O)N[C@@H](CC(N)=O)C(=O)N[C@@H](CC(N)=O)C(=O)N[C@@H](CC(C)C)C(=O)N[C@@H](CC(C)C)C(=O)N[C@H](C(=O)N[C@@H](CCSC)C(=O)N[C@@H](CCSC)C(=O)N[C@@H](CO)C(=O)N[C@H](C(=O)N[C@@H](CO)C(=O)N[C@@H](CC(N)=O)C(=O)N[C@@H](CO)C(=O)N[C@@H](C)C(=O)N[C@@H](CCCCN)C(=O)N[C@@H](CC(=O)O)C(N)=O)[C@@H](C)O)[C@@H](C)O)C(C)C)[C@@H](C)O [CGEN-G6] (Ac-DLMETVNNLLTMMSTSNSAKD-NH2) | – | – | – | – | did not inhibit angiogenesis
3 | CC[C@H](C)[C@H](NC(=O)[C@H](C)NC(=O)[C@H](CCCNC(=N)N)NC(=O)[C@H](CCC(=O)O)NC(=O)[C@H](CC(C)C)NC(=O)[C@H](CCCCN)NC(=O)[C@H](CCCCN)NC(=O)[C@H](CC(C)C)NC(=O)[C@H](Cc1c[nH]c2ccccc12)NC(=O)[C@H](CCC(N)=O)NC(=O)[C@@H](NC(=O)[C@H](CC(N)=O)NC(=O)[C@H](CC(N)=O)NC(=O)[C@H](CCC(N)=O)NC(=O)[C@H](CC(C)C)NC(=O)[C@H](C)NC(=O)[C@H](CCC(N)=O)NC(=O)[C@H](CCC(=O)O)NC(=O)[C@H](CC(C)C)NC(=O)[C@H](CCC(N)=O)NC(=O)[C@H](CCCCN)NC(=O)[C@@H](NC(=O)[C@H](CCC(N)=O)NC(=O)[C@H](CCC(N)=O)NC(=O)[C@@H](NC(C)=O)[C@@H](C)O)C(C)C)[C@@H](C)O)C(=O)N[C@@H](CCCCN)C(=O)N[C@H](C(=O)N[C@H](C(=O)N[C@@H](CC(C)C)C(N)=O)[C@@H](C)CC)[C@@H](C)O [CGEN-G2] (Ac-TQQVKQLEQALQNNTQWLKKLERAIKTIL-NH2) | – | – | – | – | did not inhibit angiogenesis

Source: patent US9255132B2, “Angiopoietin derived peptides” (Compugen Ltd., priority 2008, dated 2016)
